This experiment deals with Serotonin 3 (5-HT3) receptor (Rattus norvegicus) (UniProt P35563+Q9JJ16). Description: Antagonistic activity against 5-hydroxytryptamine 3 receptor as inhibition of 5-HT-induced bradycardia (von Bezold-jarisch reflex) in anesthetized rat. The experiment is classed as functional.

For the compound `COc1cc(N)ccc1C(=O)NC1CC2CCC(C1)N2C` (stereo unspecified), the ID50 amounted to 0.016 mg/kg. For `COc1cc(N)c(Cl)cc1C(=O)NC1CC2CCC(C1)N2C` (stereo unspecified) the value was 0.0008 mg/kg; for `CN1[C@@H]2CC[C@H]1C[C@@H](OC(=O)c1c[nH]c3ccccc13)C2`, 0.0014 mg/kg; for `CN1[C@@H]2CC[C@H]1C[C@@H](OC(=O)c1cc(Cl)cc(Cl)c1)C2`, 0.035 mg/kg. `CN1C2CCC1CC(NC(=O)c1ccc(N)c(Cl)c1)C2` (stereo unspecified) returned an ID50 of 0.036 mg/kg. `CN1C2CCC1CC(n1cnc3cc(N)c(Cl)cc3c1=O)C2` (stereo unspecified) displayed an ID50 of 0.33 mg/kg. Under `Nc1cc2nnn(C3CN4CCC3CC4)c(=O)c2cc1Cl` (stereo unspecified) stands 0.0036 mg/kg; under `CN1C2CCC1CC(n1nnc3ccccc3c1=O)C2` (stereo unspecified), over 0.05 mg/kg. For `CN1C2CCC1CC(n1nnc3cc([N+](=O)[O-])c(Cl)cc3c1=O)C2` (stereo unspecified) the value was 0.013 mg/kg.

The compound `COc1ccc(Cl)cc1C(=O)NC1CC2CCC(C1)N2C` (stereo unspecified) registered an ID50 of 0.015 mg/kg.

For the compound `CN1C2CCC1CC(n1nnc3ccc(Cl)cc3c1=O)C2` (stereo unspecified), the ID50 turned out to be 0.012 mg/kg.

(Values after ChEMBL document CHEMBL1125070, “Benzotriazinones as "virtual ring" mimics of o-methoxybenzamides: novel and potent 5-HT3 receptor antagonists” (J Med Chem, 1990).)
